Legend:
Assay in all cases: KinaseProfiler kinase panel
Assay type in all cases: biochemical
CK1γ1(h) = CK1γ1(h) (Homo sapiens (Human), UniProt Q9HCP0)
PKCη(h) = PKCη(h) (Homo sapiens (Human), UniProt P24723)
HIPK3(h) = HIPK3(h) (Homo sapiens (Human), UniProt Q9H422)
PTK5(h) = PTK5(h) (Homo sapiens (Human), UniProt P42685)
CK1γ2(h) = CK1γ2(h) (Homo sapiens (Human), UniProt P78368)
EphB2(h) = EphB2(h) (Homo sapiens (Human), UniProt P29323)
PIM-3(h) = PIM-3(h) (Homo sapiens (Human), UniProt Q86V86)
ROCK-II(r) = ROCK-II(r) (Rattus norvegicus (Rat), UniProt Q62868)
Sequence of ROCK-II(r) (Q62868 whole entry): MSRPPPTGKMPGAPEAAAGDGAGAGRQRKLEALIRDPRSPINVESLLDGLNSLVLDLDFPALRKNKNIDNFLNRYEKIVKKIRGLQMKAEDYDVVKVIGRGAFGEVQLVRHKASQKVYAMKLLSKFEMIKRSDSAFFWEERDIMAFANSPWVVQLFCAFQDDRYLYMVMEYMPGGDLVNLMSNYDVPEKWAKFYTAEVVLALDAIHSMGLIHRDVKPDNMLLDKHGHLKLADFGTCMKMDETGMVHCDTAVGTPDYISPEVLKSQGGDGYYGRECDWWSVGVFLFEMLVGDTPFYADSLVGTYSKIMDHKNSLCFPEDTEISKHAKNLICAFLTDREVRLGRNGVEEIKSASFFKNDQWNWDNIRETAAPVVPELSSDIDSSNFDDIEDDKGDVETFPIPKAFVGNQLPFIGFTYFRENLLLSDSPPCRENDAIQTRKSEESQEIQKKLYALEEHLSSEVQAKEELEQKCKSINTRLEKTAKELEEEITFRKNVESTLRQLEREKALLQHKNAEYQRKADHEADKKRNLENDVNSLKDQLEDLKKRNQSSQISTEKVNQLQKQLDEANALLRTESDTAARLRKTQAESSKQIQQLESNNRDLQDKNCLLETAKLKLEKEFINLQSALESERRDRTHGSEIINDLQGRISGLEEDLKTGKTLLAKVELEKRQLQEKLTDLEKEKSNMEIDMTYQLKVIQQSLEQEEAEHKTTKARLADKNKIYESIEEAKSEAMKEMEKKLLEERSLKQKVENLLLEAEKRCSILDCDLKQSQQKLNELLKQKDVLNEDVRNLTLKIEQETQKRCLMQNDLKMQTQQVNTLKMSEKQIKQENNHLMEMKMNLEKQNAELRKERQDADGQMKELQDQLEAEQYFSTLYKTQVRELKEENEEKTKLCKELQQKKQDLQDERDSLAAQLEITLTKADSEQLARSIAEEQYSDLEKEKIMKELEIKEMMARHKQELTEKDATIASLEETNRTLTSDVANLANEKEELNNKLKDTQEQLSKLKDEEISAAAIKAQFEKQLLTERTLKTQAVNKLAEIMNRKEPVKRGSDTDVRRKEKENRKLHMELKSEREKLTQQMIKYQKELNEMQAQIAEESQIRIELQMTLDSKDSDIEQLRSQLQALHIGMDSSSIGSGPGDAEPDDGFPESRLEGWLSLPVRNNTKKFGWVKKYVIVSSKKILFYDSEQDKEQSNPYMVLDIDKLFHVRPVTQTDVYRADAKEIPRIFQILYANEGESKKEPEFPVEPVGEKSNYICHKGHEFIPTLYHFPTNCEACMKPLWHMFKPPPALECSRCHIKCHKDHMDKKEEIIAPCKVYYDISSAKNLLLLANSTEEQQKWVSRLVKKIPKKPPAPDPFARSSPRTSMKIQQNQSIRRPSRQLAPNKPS

TGFBR1(h) = TGFBR1(h) (Homo sapiens (Human), UniProt P36897)
PKCμ(h) = PKCμ(h) (Homo sapiens (Human), UniProt Q15139)
ROCK-II(h) = ROCK-II(h) (Homo sapiens (Human), UniProt O75116)
Tie2(R849W)(h) = Tie2(R849W)(h) (Homo sapiens (Human), UniProt Q02763, R849W)
JNK3(h) = JNK3(h) (Homo sapiens (Human), UniProt P53779)
IR(h), activated = IR(h), activated (Homo sapiens (Human), UniProt P06213)
Sequence of IR(h), activated (P06213 28-1382): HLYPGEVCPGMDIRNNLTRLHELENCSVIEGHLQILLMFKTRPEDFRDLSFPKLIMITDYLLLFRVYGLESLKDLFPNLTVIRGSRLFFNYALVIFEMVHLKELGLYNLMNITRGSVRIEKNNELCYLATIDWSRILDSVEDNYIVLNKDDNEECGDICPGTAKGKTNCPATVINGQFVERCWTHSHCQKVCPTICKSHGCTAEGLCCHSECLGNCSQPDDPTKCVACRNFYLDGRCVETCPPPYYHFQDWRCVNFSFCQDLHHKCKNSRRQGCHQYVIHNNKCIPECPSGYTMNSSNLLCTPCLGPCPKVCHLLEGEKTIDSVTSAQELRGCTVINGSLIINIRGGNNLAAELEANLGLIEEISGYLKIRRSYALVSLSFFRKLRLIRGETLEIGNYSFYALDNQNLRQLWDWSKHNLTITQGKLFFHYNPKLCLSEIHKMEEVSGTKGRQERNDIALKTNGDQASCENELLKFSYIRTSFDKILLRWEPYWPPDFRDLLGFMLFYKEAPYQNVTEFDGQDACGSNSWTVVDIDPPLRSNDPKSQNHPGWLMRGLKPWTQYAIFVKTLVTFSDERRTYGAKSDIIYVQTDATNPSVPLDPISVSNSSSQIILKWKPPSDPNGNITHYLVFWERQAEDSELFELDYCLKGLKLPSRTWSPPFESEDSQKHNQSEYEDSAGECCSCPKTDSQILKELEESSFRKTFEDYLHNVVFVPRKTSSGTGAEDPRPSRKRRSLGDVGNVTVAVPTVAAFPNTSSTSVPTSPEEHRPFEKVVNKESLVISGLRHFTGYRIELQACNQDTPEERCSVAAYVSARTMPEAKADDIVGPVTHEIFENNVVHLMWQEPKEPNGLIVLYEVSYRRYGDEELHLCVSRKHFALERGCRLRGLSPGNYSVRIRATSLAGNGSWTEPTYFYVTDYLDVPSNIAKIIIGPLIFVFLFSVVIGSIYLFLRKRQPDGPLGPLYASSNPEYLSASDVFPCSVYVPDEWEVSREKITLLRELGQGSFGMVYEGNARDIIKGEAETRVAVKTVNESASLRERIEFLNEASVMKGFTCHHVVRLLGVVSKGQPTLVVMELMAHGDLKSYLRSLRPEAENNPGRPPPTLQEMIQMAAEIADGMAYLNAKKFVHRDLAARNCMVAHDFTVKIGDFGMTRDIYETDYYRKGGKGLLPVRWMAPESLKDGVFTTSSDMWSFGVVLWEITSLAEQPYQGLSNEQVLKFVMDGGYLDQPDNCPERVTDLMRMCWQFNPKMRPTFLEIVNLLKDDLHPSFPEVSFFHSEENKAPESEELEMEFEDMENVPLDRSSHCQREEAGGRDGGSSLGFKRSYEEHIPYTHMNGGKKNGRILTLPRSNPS

DMPK(h) = DMPK(h) (Homo sapiens (Human), UniProt Q09013)
CaMKIIγ(h) = CaMKIIγ(h) (Homo sapiens (Human), UniProt Q13555)
CDK1/cyclinB(h) = CDK1/cyclinB(h) (Homo sapiens (Human), UniProt P06493)
EGFR(L861Q)(h) = EGFR(L861Q)(h) (Homo sapiens (Human), UniProt P00533, L861Q)
Fms(Y969C)(h) = Fms(Y969C)(h) (Homo sapiens (Human), UniProt P07333, Y969C)
Src(T341M)(h) = Src(T341M)(h) (Homo sapiens (Human), UniProt P12931, T341M)
PDGFRα(D842V)(h) = PDGFRα(D842V)(h) (Homo sapiens (Human), UniProt P16234, D842V)
IRR(h) = IRR(h) (Homo sapiens (Human), UniProt P14616)
Sequence of IRR(h) (P14616 27-1297): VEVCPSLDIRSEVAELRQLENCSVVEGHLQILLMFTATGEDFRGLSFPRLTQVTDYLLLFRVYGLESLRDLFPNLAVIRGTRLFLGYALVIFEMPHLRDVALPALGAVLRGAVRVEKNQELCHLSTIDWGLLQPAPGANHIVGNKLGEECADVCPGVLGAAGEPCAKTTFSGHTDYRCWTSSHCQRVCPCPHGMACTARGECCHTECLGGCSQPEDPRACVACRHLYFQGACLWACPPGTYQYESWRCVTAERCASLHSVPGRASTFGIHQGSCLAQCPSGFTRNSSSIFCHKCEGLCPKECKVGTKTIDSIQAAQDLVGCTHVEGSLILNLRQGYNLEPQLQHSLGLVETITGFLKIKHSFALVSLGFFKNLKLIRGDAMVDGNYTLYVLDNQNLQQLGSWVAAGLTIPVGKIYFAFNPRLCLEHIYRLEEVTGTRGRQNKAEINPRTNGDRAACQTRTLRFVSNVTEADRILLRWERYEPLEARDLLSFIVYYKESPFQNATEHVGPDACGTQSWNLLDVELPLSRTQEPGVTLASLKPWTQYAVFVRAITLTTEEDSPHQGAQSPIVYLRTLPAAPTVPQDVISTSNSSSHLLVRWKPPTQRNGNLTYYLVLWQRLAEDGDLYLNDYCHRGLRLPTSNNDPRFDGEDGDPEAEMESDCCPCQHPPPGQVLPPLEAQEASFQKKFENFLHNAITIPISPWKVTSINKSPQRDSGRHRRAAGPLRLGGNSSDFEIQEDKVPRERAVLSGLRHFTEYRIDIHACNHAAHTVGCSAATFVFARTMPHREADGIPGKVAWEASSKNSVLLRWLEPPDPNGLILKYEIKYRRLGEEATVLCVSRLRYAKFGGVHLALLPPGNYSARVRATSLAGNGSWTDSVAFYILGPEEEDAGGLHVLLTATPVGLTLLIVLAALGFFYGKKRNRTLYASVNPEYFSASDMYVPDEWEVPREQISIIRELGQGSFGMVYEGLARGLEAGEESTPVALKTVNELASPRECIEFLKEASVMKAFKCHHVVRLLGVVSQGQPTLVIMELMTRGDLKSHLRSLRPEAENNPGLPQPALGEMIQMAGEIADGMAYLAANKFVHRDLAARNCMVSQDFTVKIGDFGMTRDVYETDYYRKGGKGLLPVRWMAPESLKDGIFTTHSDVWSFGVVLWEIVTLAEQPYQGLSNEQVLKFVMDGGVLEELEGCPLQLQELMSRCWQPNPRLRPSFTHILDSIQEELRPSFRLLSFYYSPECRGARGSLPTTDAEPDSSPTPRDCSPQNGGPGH

Flt3(h) = Flt3(h) (Homo sapiens (Human), UniProt P36888)
CDK6/cyclinD3(h) = CDK6/cyclinD3(h) (Homo sapiens (Human), UniProt Q00534)
IRAK1(h) = IRAK1(h) (Homo sapiens (Human), UniProt P51617)
Fes(h) = Fes(h) (Homo sapiens (Human), UniProt P07332)
MST3(h) = MST3(h) (Homo sapiens (Human), UniProt Q9Y6E0)
PKBα(h) = PKBα(h) (Homo sapiens (Human), UniProt P31749)
Rsk1(h) = Rsk1(h) (Homo sapiens (Human), UniProt Q15418)
PKCγ(h) = PKCγ(h) (Homo sapiens (Human), UniProt P05129)
JAK3(h) = JAK3(h) (Homo sapiens (Human), UniProt P52333)
Rsk3(h) = Rsk3(h) (Homo sapiens (Human), UniProt Q15349)
NLK(h) = NLK(h) (Homo sapiens (Human), UniProt Q9UBE8)
Met(M1268T)(h) = Met(M1268T)(h) (Homo sapiens (Human), UniProt P08581, M1268T)
CHK2(I157T)(h) = CHK2(I157T)(h) (Homo sapiens (Human), UniProt O96017, I157T)
Sequence of CHK2(I157T)(h) (O96017 whole entry I157T): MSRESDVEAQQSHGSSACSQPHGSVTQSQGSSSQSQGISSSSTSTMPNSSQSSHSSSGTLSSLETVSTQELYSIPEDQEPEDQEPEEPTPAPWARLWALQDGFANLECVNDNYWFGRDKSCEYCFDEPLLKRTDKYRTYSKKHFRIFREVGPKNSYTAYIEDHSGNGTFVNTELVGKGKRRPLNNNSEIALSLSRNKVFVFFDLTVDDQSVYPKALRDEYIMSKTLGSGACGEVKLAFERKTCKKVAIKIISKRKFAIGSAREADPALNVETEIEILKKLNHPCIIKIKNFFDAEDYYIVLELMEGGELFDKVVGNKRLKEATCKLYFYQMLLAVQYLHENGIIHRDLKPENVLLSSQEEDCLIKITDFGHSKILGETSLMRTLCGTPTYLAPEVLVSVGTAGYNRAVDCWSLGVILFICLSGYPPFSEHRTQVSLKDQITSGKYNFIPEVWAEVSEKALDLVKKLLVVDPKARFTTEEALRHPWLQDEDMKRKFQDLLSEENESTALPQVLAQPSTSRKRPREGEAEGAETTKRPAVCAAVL

CaMKIIδ(h) = CaMKIIδ(h) (Homo sapiens (Human), UniProt Q13557)
Met(D1246N)(h) = Met(D1246N)(h) (Homo sapiens (Human), UniProt P08581, D1246N)
Rsk1(r) = Rsk1(r) (Rattus norvegicus (Rat), UniProt Q63531)
CK1δ(h) = CK1δ(h) (Homo sapiens (Human), UniProt P48730)

Sequence of CK1γ2(h) (P78368 whole entry): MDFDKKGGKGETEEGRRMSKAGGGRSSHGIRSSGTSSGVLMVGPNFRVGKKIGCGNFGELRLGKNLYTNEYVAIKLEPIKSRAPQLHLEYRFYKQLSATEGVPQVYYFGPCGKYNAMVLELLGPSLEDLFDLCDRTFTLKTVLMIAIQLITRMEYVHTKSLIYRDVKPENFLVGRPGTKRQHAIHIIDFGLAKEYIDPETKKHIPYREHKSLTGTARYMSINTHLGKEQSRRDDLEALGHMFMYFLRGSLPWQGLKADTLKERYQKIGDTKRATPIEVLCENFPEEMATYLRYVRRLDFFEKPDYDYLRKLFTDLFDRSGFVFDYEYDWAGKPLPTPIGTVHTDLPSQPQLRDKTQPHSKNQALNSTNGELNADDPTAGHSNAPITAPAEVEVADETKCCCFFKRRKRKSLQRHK

Question: With `CCn1c(N2CCNCC2)nc2c(Br)c(Br)c(Br)c(Br)c21` [Compound 416, 4,5,6,7-tetrabromo-1-ethyl-2-(piperazin-1-yl)-1H-benzo[d]imidazole] as the molecule, how does the remaining activity at 1 µM (CK1γ1(h)) read?
Answer: The remaining activity at 1 µM was 83%.

Question: What about the remaining activity at 1 µM (PKCη(h)) of the same molecule?
Answer: Its remaining activity at 1 µM is 92%.

Question: And the remaining activity at 1 µM (HIPK3(h))?
Answer: The remaining activity at 1 µM was -1%.

Question: And the remaining activity at 1 µM (PTK5(h))?
Answer: Its remaining activity at 1 µM is 99%.

Question: What about the remaining activity at 1 µM (CK1γ2(h)) of the same molecule?
Answer: The remaining activity at 1 µM was 85%.

Question: And the remaining activity at 1 µM (EphB2(h))?
Answer: The remaining activity at 1 µM was 106%.

Question: And the remaining activity at 1 µM (PIM-3(h))?
Answer: Its remaining activity at 1 µM is 34%.

Question: And the remaining activity at 1 µM (ROCK-II(r))?
Answer: The remaining activity at 1 µM was 71%.

Question: And the remaining activity at 1 µM (TGFBR1(h))?
Answer: The remaining activity at 1 µM was 87%.

Question: What about the remaining activity at 1 µM (PKCμ(h)) of the same molecule?
Answer: Its remaining activity at 1 µM is 30%.

Question: And the remaining activity at 1 µM (ROCK-II(h))?
Answer: Its remaining activity at 1 µM is 81%.

Question: What about the remaining activity at 1 µM (Tie2(R849W)(h)) of the same molecule?
Answer: Its remaining activity at 1 µM is 101%.

Question: And the remaining activity at 1 µM (JNK3(h))?
Answer: The remaining activity at 1 µM was 87%.

Question: And the remaining activity at 1 µM (IR(h), activated)?
Answer: Its remaining activity at 1 µM is 93%.

Question: And the remaining activity at 1 µM (DMPK(h))?
Answer: The remaining activity at 1 µM was 97%.

Question: And the remaining activity at 1 µM (CaMKIIγ(h))?
Answer: The remaining activity at 1 µM was 41%.

Question: And the remaining activity at 1 µM (CDK1/cyclinB(h))?
Answer: The remaining activity at 1 µM was 7%.

Question: What about the remaining activity at 1 µM (EGFR(L861Q)(h)) of the same molecule?
Answer: Its remaining activity at 1 µM is 27%.

Question: And the remaining activity at 1 µM (Fms(Y969C)(h))?
Answer: Its remaining activity at 1 µM is 92%.

Question: And the remaining activity at 1 µM (Src(T341M)(h))?
Answer: The remaining activity at 1 µM was 40%.

Question: And the remaining activity at 1 µM (PDGFRα(D842V)(h))?
Answer: Its remaining activity at 1 µM is 17%.

Question: What about the remaining activity at 1 µM (IRR(h)) of the same molecule?
Answer: Its remaining activity at 1 µM is 91%.

Question: What about the remaining activity at 1 µM (Flt3(h)) of the same molecule?
Answer: The remaining activity at 1 µM was 0%.

Question: And the remaining activity at 1 µM (CDK6/cyclinD3(h))?
Answer: The remaining activity at 1 µM was 91%.

Question: And the remaining activity at 1 µM (IRAK1(h))?
Answer: Its remaining activity at 1 µM is 33%.

Question: And the remaining activity at 1 µM (Fes(h))?
Answer: The remaining activity at 1 µM was 52%.

Question: And the remaining activity at 1 µM (MST3(h))?
Answer: Its remaining activity at 1 µM is 93%.

Question: And the remaining activity at 1 µM (PKBα(h))?
Answer: The remaining activity at 1 µM was 59%.

Question: What about the remaining activity at 1 µM (Rsk1(h)) of the same molecule?
Answer: Its remaining activity at 1 µM is 56%.

Question: What about the remaining activity at 1 µM (PKCγ(h)) of the same molecule?
Answer: The remaining activity at 1 µM was 93%.

Question: What about the remaining activity at 1 µM (JAK3(h)) of the same molecule?
Answer: The remaining activity at 1 µM was 74%.

Question: And the remaining activity at 1 µM (Rsk3(h))?
Answer: The remaining activity at 1 µM was 71%.

Question: What about the remaining activity at 1 µM (NLK(h)) of the same molecule?
Answer: Its remaining activity at 1 µM is 85%.

Question: And the remaining activity at 1 µM (Met(M1268T)(h))?
Answer: The remaining activity at 1 µM was 70%.

Question: What about the remaining activity at 1 µM (CHK2(I157T)(h)) of the same molecule?
Answer: Its remaining activity at 1 µM is 80%.

Question: What about the remaining activity at 1 µM (CaMKIIδ(h)) of the same molecule?
Answer: Its remaining activity at 1 µM is 28%.

Question: And the remaining activity at 1 µM (Met(D1246N)(h))?
Answer: The remaining activity at 1 µM was 74%.

Question: And the remaining activity at 1 µM (Rsk1(r))?
Answer: Its remaining activity at 1 µM is 79%.

Question: What about the remaining activity at 1 µM (CK1δ(h)) of the same molecule?
Answer: The remaining activity at 1 µM was 62%.

Reference: patent publication US8604217B2, “Compound, a process for its preparation, a pharmaceutical composition, use of a compound, a method for modulating or regulating serine/threonine kinases and a serine/threonine kinases modulating agent” (Selvita S.A., priority 2009, dated 2013)
